Measured values as given in ChEMBL document CHEMBL1629422, “Synthesis and antimicrobial evaluation of some fused heterocyclic [1,2,4]triazolo[3,4-b][1,3,4]thiadiazole derivatives” (2010).
Converted amounts (≈) assume the structure as drawn.

Legend:
Assay type in all cases: functional
Candida albicans = assay: Antimicrobial activity against Candida albicans ATCC 90028 after 48 hrs by broth dilution method; conditions: ATCC 90028, 48 h
Staphylococcus aureus = assay: Antimicrobial activity against Staphylococcus aureus ATCC 25923 after18 to 20 hrs by broth dilution method
Escherichia coli = assay: Antimicrobial activity against Escherichia coli ATCC 25922 after18 to 20 hrs by broth dilution method
Enterobacter cloacae = assay: Antimicrobial activity against Enterobacter cloacae ATCC 49141 after18 to 20 hrs by broth dilution method
Citrobacter freundii = assay: Antimicrobial activity against Citrobacter freundii ATCC 8090 after18 to 20 hrs by broth dilution method
Acinetobacter baumannii = assay: Antimicrobial activity against Acinetobacter baumannii ATCC 19606 after18 to 20 hrs by broth dilution method
Bacillus cereus = assay: Antimicrobial activity against Bacillus cereus ATCC 13061 after18 to 20 hrs by broth dilution method
Pseudomonas aeruginosa = assay: Antimicrobial activity against Pseudomonas aeruginosa ATCC 27853 after18 to 20 hrs by broth dilution method
[1] = system: Staphylococcus epidermidis; assay: Antimicrobial activity against Staphylococcus epidermidis ATCC 14990 after18 to 20 hrs by broth dilution method
Enterococcus faecalis = assay: Antimicrobial activity against Enterococcus faecalis ATCC 29212 after18 to 20 hrs by broth dilution method

Row | MIC (Candida albicans) [µg/mL] | MIC (Staphylococcus aureus) [µg/mL] | MIC (Escherichia coli) [µg/mL] | MIC (Enterobacter cloacae) [µg/mL] | MIC (Citrobacter freundii) [µg/mL] | MIC (Acinetobacter baumannii) [µg/mL] | MIC (Bacillus cereus) [µg/mL] | MIC (Pseudomonas aeruginosa) [µg/mL] | MIC [1] [µg/mL] | MIC (Enterococcus faecalis) [µg/mL] | SMILES
1 | 128 (≈ 216 µM) | 512 (≈ 866 µM) | 128 (≈ 216 µM) | 512 (≈ 866 µM) | 1020 (≈ 1730 µM) | 512 (≈ 866 µM) | 1020 (≈ 1730 µM) | 512 (≈ 866 µM) | 512 (≈ 866 µM) | 128 (≈ 216 µM) | O=S(=O)(c1ccc(Br)cc1)c1ccc(-c2nnc3sc(Nc4ccc(Br)cc4)nn23)cc1
2 | 256 (≈ 714 µM) | 256 (≈ 714 µM) | 256 (≈ 714 µM) | 256 (≈ 714 µM) | 512 (≈ 1430 µM) | 128 (≈ 357 µM) | 1020 (≈ 2860 µM) | 512 (≈ 1430 µM) | 512 (≈ 1430 µM) | 128 (≈ 357 µM) | O=S(=O)(c1ccccc1)c1ccc(-c2nnc3sc(O)nn23)cc1
3 | 512 (≈ 973 µM) | 512 (≈ 973 µM) | 256 (≈ 486 µM) | 1020 (≈ 1950 µM) | 1020 (≈ 1950 µM) | 1020 (≈ 1950 µM) | 256 (≈ 486 µM) | 128 (≈ 243 µM) | 1020 (≈ 1950 µM) | 512 (≈ 973 µM) | NCc1ccc(-c2nn3c(-c4ccc(S(=O)(=O)c5ccc(Br)cc5)cc4)nnc3s2)cc1
4 | 256 (≈ 572 µM) | 1020 (≈ 2290 µM) | 256 (≈ 572 µM) | 512 (≈ 1140 µM) | 1020 (≈ 2290 µM) | 128 (≈ 286 µM) | 1020 (≈ 2290 µM) | 512 (≈ 1140 µM) | 512 (≈ 1140 µM) | 512 (≈ 1140 µM) | Cc1ccc(Nc2nn3c(-c4ccc(S(=O)(=O)c5ccccc5)cc4)nnc3s2)cc1
5 | 128 (≈ 222 µM) | 256 (≈ 444 µM) | 256 (≈ 444 µM) | 256 (≈ 444 µM) | 128 (≈ 222 µM) | 256 (≈ 444 µM) | 1020 (≈ 1780 µM) | 256 (≈ 444 µM) | 64 (≈ 111 µM) | 128 (≈ 222 µM) | O=S(=O)(c1ccc(Br)cc1)c1ccc(-c2nnc3sc(-c4ccc(Br)cc4)nn23)cc1
6 | 256 (≈ 552 µM) | 1020 (≈ 2210 µM) | 256 (≈ 552 µM) | 256 (≈ 552 µM) | 256 (≈ 552 µM) | 128 (≈ 276 µM) | 256 (≈ 552 µM) | 256 (≈ 552 µM) | 128 (≈ 276 µM) | 64 (≈ 138 µM) | COc1ccc(Nc2nn3c(-c4ccc(S(=O)(=O)c5ccccc5)cc4)nnc3s2)cc1
7 | 1020 (≈ 2000 µM) | 1020 (≈ 2000 µM) | 256 (≈ 500 µM) | 512 (≈ 999 µM) | 1020 (≈ 2000 µM) | 512 (≈ 999 µM) | 1020 (≈ 2000 µM) | 512 (≈ 999 µM) | 512 (≈ 999 µM) | 1020 (≈ 2000 µM) | O=S(=O)(c1ccccc1)c1ccc(-c2nnc3sc(Nc4ccc(Br)cc4)nn23)cc1
8 | 128 (≈ 243 µM) | 512 (≈ 973 µM) | 256 (≈ 486 µM) | 512 (≈ 973 µM) | 1020 (≈ 1950 µM) | 1020 (≈ 1950 µM) | 1020 (≈ 1950 µM) | 512 (≈ 973 µM) | 1020 (≈ 1950 µM) | 512 (≈ 973 µM) | Cc1ccc(Nc2nn3c(-c4ccc(S(=O)(=O)c5ccc(Br)cc5)cc4)nnc3s2)cc1
9 | 1020 (≈ 2060 µM) | 512 (≈ 1030 µM) | 512 (≈ 1030 µM) | 512 (≈ 1030 µM) | 1020 (≈ 2060 µM) | 1020 (≈ 2060 µM) | 1020 (≈ 2060 µM) | 512 (≈ 1030 µM) | 1020 (≈ 2060 µM) | 1020 (≈ 2060 µM) | O=S(=O)(c1ccccc1)c1ccc(-c2nnc3sc(-c4ccc(Br)cc4)nn23)cc1
10 | 512 (≈ 1140 µM) | 256 (≈ 571 µM) | 512 (≈ 1140 µM) | 512 (≈ 1140 µM) | 512 (≈ 1140 µM) | 512 (≈ 1140 µM) | 512 (≈ 1140 µM) | 256 (≈ 571 µM) | 512 (≈ 1140 µM) | 512 (≈ 1140 µM) | COc1ccc(-c2nn3c(-c4ccc(S(=O)(=O)c5ccccc5)cc4)nnc3s2)cc1
11 | 512 (≈ 939 µM) | 256 (≈ 469 µM) | 128 (≈ 235 µM) | 256 (≈ 469 µM) | 128 (≈ 235 µM) | 128 (≈ 235 µM) | 256 (≈ 469 µM) | 128 (≈ 235 µM) | 128 (≈ 235 µM) | 64 (≈ 117 µM) | O=S(=O)(c1ccc(Br)cc1)c1ccc(-c2nnc3sc(-c4cc(O)c(O)c(O)c4)nn23)cc1

Continued, compound first:

Row | SMILES | MIC (Candida albicans) [µg/mL] | MIC (Staphylococcus aureus) [µg/mL] | MIC (Escherichia coli) [µg/mL] | MIC (Enterobacter cloacae) [µg/mL] | MIC (Citrobacter freundii) [µg/mL] | MIC (Acinetobacter baumannii) [µg/mL] | MIC (Bacillus cereus) [µg/mL] | MIC (Pseudomonas aeruginosa) [µg/mL] | MIC [1] [µg/mL] | MIC (Enterococcus faecalis) [µg/mL]
12 | Nc1ccc(-c2nn3c(-c4ccc(S(=O)(=O)c5ccccc5)cc4)nnc3s2)cc1 | 256 (≈ 591 µM) | 512 (≈ 1180 µM) | 256 (≈ 591 µM) | 256 (≈ 591 µM) | 256 (≈ 591 µM) | 128 (≈ 295 µM) | 256 (≈ 591 µM) | 256 (≈ 591 µM) | 64 (≈ 148 µM) | 128 (≈ 295 µM)
13 | NCc1ccc(-c2nn3c(-c4ccc(S(=O)(=O)c5ccccc5)cc4)nnc3s2)cc1 | 512 (≈ 1140 µM) | 512 (≈ 1140 µM) | 256 (≈ 572 µM) | 512 (≈ 1140 µM) | 1020 (≈ 2290 µM) | 1020 (≈ 2290 µM) | 1020 (≈ 2290 µM) | 256 (≈ 572 µM) | 512 (≈ 1140 µM) | 512 (≈ 1140 µM)
14 | O=S(=O)(c1ccccc1)c1ccc(-c2nnc3sc(-c4cc(O)c(O)c(O)c4)nn23)cc1 | 512 (≈ 1100 µM) | 512 (≈ 1100 µM) | 256 (≈ 549 µM) | 512 (≈ 1100 µM) | 1020 (≈ 2200 µM) | 1020 (≈ 2200 µM) | 256 (≈ 549 µM) | 128 (≈ 274 µM) | 512 (≈ 1100 µM) | 32 (≈ 68.6 µM)
15 | O=S(=O)(c1ccccc1)c1ccc(-c2nnc3sc(-c4ccc(Cl)c(Br)c4)nn23)cc1 | 512 (≈ 963 µM) | 256 (≈ 481 µM) | 128 (≈ 241 µM) | 512 (≈ 963 µM) | 1020 (≈ 1930 µM) | 256 (≈ 481 µM) | 256 (≈ 481 µM) | 128 (≈ 241 µM) | 128 (≈ 241 µM) | 128 (≈ 241 µM)
16 | O=S(=O)(c1ccc(Br)cc1)c1ccc(-c2nnc3sc(O)nn23)cc1 | 256 (≈ 585 µM) | 256 (≈ 585 µM) | 256 (≈ 585 µM) | 256 (≈ 585 µM) | 256 (≈ 585 µM) | 256 (≈ 585 µM) | 1020 (≈ 2340 µM) | 256 (≈ 585 µM) | 128 (≈ 293 µM) | 64 (≈ 146 µM)
17 | COc1ccc(Nc2nn3c(-c4ccc(S(=O)(=O)c5ccc(Br)cc5)cc4)nnc3s2)cc1 | 128 (≈ 236 µM) | 512 (≈ 944 µM) | 256 (≈ 472 µM) | 256 (≈ 472 µM) | 256 (≈ 472 µM) | 128 (≈ 236 µM) | 1020 (≈ 1890 µM) | 256 (≈ 472 µM) | 128 (≈ 236 µM) | 128 (≈ 236 µM)
18 | CC1(C)S[C@@H]2[C@H](NC(=O)[C@H](N)c3ccccc3)C(=O)N2[C@H]1C(=O)O [AMPICILLIN] |  | < 2 |  |  |  |  | < 2 |  | < 2 | < 2
19 | C[C@H]1[C@H](NC(=O)/C(=N\OC(C)(C)C(=O)O)c2csc(N)n2)C(=O)N1S(=O)(=O)O [AZTREONAM] |  |  | < 2 |  | < 2 | < 2 |  | 4 (≈ 9.19 µM) |  | 
20 | O=S(=O)(c1ccccc1)c1ccc(-c2nnc3sc(-c4ccc(Cl)cc4)nn23)cc1 | 512 (≈ 1130 µM) | 256 (≈ 565 µM) | 512 (≈ 1130 µM) | 512 (≈ 1130 µM) | 512 (≈ 1130 µM) | 512 (≈ 1130 µM) | 1020 (≈ 2260 µM) | 512 (≈ 1130 µM) | 512 (≈ 1130 µM) | 512 (≈ 1130 µM)
21 | COc1ccc(-c2nn3c(-c4ccc(S(=O)(=O)c5ccc(Br)cc5)cc4)nnc3s2)cc1 | 512 (≈ 971 µM) | 128 (≈ 243 µM) | 256 (≈ 485 µM) | 1020 (≈ 1940 µM) | 512 (≈ 971 µM) | 256 (≈ 485 µM) | 256 (≈ 485 µM) | 512 (≈ 971 µM) | 512 (≈ 971 µM) | 512 (≈ 971 µM)
22 | C[C@@H]1[C@H](O)[C@@H](C)/C=C/C=C/C=C/C=C/C=C/C=C/C=C/[C@H](O[C@@H]2O[C@H](C)[C@@H](O)[C@H](N)[C@@H]2O)C[C@@H]2O[C@](O)(C[C@@H](O)C[C@@H](O)[C@H](O)CC[C@@H](O)C[C@@H](O)CC(=O)O[C@H]1C)C[C@H](O)[C@H]2C(=O)O [AMPHOTERICIN B] | 2 (≈ 2.16 µM) |  |  |  |  |  |  |  |  | 
23 | O=S(=O)(c1ccc(Br)cc1)c1ccc(-c2nnc3sc(-c4ccc(Cl)c(Br)c4)nn23)cc1 | 256 (≈ 419 µM) | 64 (≈ 105 µM) | 64 (≈ 105 µM) | 256 (≈ 419 µM) | 1020 (≈ 1680 µM) | 512 (≈ 838 µM) | 128 (≈ 210 µM) | 32 (≈ 52.4 µM) | 32 (≈ 52.4 µM) | 32 (≈ 52.4 µM)
24 | O=S(=O)(c1ccc(Br)cc1)c1ccc(-c2nnc3sc(-c4ccc(Cl)cc4)nn23)cc1 | 1020 (≈ 1930 µM) | 128 (≈ 241 µM) | 128 (≈ 241 µM) | 512 (≈ 963 µM) | 512 (≈ 963 µM) | 256 (≈ 481 µM) | 256 (≈ 481 µM) | 512 (≈ 963 µM) | 128 (≈ 241 µM) | 64 (≈ 120 µM)
25 | Nc1ccc(-c2nn3c(-c4ccc(S(=O)(=O)c5ccc(Br)cc5)cc4)nnc3s2)cc1 | 512 (≈ 999 µM) | 256 (≈ 500 µM) | 256 (≈ 500 µM) | 1020 (≈ 2000 µM) | 512 (≈ 999 µM) | 1020 (≈ 2000 µM) | 128 (≈ 250 µM) | 512 (≈ 999 µM) | 512 (≈ 999 µM) | 512 (≈ 999 µM)
